Source: BindingDB's records for doi:10.1007/bf00168685 (Centre De Pharmacologie-Endocrinologie (Montpellier, France), 1992)

Target: T1, 5-hydroxytryptamine receptor 3A (Rattus norvegicus, UniProt P35563)
T1 sequence (P35563 whole entry): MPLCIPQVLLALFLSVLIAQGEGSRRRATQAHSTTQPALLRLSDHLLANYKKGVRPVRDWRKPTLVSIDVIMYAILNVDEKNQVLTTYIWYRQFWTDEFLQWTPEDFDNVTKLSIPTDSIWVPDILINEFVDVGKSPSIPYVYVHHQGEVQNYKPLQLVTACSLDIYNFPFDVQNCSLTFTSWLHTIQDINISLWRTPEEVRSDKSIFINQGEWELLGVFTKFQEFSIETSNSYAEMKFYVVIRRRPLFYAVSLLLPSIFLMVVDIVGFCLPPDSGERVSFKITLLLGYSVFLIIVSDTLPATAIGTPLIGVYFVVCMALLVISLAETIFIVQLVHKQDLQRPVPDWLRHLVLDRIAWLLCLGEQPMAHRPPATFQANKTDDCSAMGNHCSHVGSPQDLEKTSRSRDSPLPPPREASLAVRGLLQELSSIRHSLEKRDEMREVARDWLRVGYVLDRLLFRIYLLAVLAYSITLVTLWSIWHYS

- Ki: 2.8 nM
SMILES: CN1C2CCC1CC(OC(=O)c1c[nH]c3ccccc13)C2 (stereo unspecified)
